Measurements reported in publication PMC4225846, “The Assessment of Cholinesterase from the Liver of Puntius Javanicus as Detection of Metal Ions” (The Scientific World Journal, 2014).
Read-outs that look alike come from different tables or passages of the source.

System: T1, P. javanicus ChE (cholinesterase from the liver of Puntius javanicus)
T1 construct: gene BCHE
Experiment: Ellman assay (DTNB), […] nm, Michaelis-Menten fit
Format: biochemical, Barbonymus gonionotus
Conditions: 0.1 M sodium phosphate pH 7.0, ambient temperature, 0.1-2.5 mM substrate, 95% confidence interval in brackets

Question: Which Km (read-out: ATC) does the source give for `CC(=O)SCC[N+](C)(C)C` [ATC, acetylthiocholine iodide] here?
Answer: 410 µM

Question: Which Km (read-out: BTC) does the source give for `CCCC(=O)SCC[N+](C)(C)C` [BTC, S-Butyrylthiocholine iodide] here?
Answer: 230 µM

Question: With `CCC(=O)SCC[N+](C)(C)C` [PTC, propionylthiocholine iodide] as the compound, how does the Km (read-out: PTC) read?
Answer: 830 µM
